Here are results for 27 molecules from patent US20110224210A1, “NOVEL BIS-AMIDES AS ANTI-MALARIAL AGENTS” (priority 2008, published 2011).

The test system of the first assay is P. falciparum K1 (strain resistant to chloroquine and pyrimethamine), erythrocytic stages. The assay is described as follows: Plasmodium falciparum in vitro assay, [3H] hypoxanthine incorporation. The class given is cell-based. Particulars: P. falciparum strain K1; [3H] hypoxanthine incorporation; read-out: IC50 (nM) on K1. The gist of the method: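 Chloroquine/pyrimethamine-resistant K1 erythrocytic cultures (2.5% haematocrit, 0.3% parasitaemia, hypoxanthine-free RPMI with Albumax) exposed to seven doubling dilutions at 37 °C under low O2.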
For the molecule “(S)-N-[1-Benzyl-2-oxo-2-(4-phenyl-piperidin-1-yl)-ethyl]-N-(4-pyrimidin-5-yl-benzyl)-3-(6-trifluoromethyl-pyridin-3-yl)-acrylamide [Example 49]”, the IC50 – broadly, the concentration needed to halve the response being measured – came to 43 nM.

The assay is the same for the next values; noted with them: Plasmodium falciparum, K1, P. falciparum strain K1; [3H] hypoxanthine incorporation; read-out: IC50 (nM) on K1.
Regarding `COCCN(C)C(=O)[C@H](Cc1ccccc1)N(Cc1ccc(N2CCN(C(C)=O)CC2)cc1)C(=O)C=Cc1cnc(OC)nc1` [Example 118, (S)-N-[4-(4-Acetyl-piperazin-1-yl)-benzyl]-N-{1-[(2-methoxy-ethyl)-methyl-carbamoyl]-2-phenyl-ethyl}-3-(2-methoxy-pyrimidin-5-yl)-acrylamide], the IC50 is 104 nM.

`CN(CCN(C)C(=O)[C@H](Cc1ccccc1)N(Cc1ccc(-c2ccccn2)cc1)C(=O)C=Cc1ccc(C(F)(F)F)cc1)Cc1ccc(Cl)nc1` [Example 221, (S)-N-[1-({2-[(6-Chloro-pyridin-3-ylmethyl)-methyl-amino]-ethyl}-methyl-carbamoyl)-2-phenyl-ethyl]-N-(4-pyridin-2-yl-benzyl)-3-(4-trifluoromethyl-phenyl)-acrylamide]: the IC50 was determined as 20 nM.

Turning to `COCCN(C)C(=O)C(Cc1ccon1)N(Cc1ccc(-c2ccncc2)cc1)C(=O)C=Cc1ccc(C(F)(F)F)cc1` (racemic) [Example 169], the IC50 was 312 nM.

Regarding `CC(=O)N1CCN(c2ccc(CN(C(=O)C=Cc3c(C)nn(C)c3C)[C@@H](Cc3ccccc3)C(=O)N3CCC(N(C)C)CC3)cc2)CC1` [Example 33, (S)-N-[4-(4-Acetyl-piperazin-1-yl)-benzyl]-N-[1-benzyl-2-(4-dimethylamino-piperidin-1-yl)-2-oxo-ethyl]-3-(1,3,5-trimethyl-1H-pyrazol-4-yl)-acrylamide], the IC50 was found to be 319 nM.

In the case of `COCCN(C)C(=O)[C@H](Cc1ccccc1)N(Cc1ccc(-c2ccncc2)cc1)C(=O)C=Cc1csnn1` [Example 98, (S)-N-{1-[(2-Methoxy-ethyl)-methyl-carbamoyl]-2-phenyl-ethyl}-N-(4-pyridin-4-yl-benzyl)-3-[1,2,3]thiadiazol-4-yl-acrylamide], the IC50 was 98 nM.

For `CN(C)C1CCN(C(=O)[C@H](Cc2ccccc2)N(Cc2ccc(-c3ccncc3)cc2)C(=O)C=Cc2ccc(C(F)(F)F)cn2)CC1` [Example 30, (S)-N-[1-Benzyl-2-(4-dimethylamino-piperidin-1-yl)-2-oxo-ethyl]-N-(4-pyridin-4-yl-benzyl)-3-(5-trifluoromethyl-pyridin-2-yl)-acrylamide], the IC50 worked out at 34 nM.

Regarding `COCCN(C)C(=O)[C@H](Cc1ccccc1)N(Cc1ccc(-c2ccccn2)cc1)C(=O)C=Cc1c(C)noc1C` [Example 80, (S)-3-(3,5-Dimethyl-isoxazol-4-yl)-N-{1-[(2-methoxy-ethyl)-methyl-carbamoyl]-2-phenyl-ethyl}-N-(4-pyridin-2-yl-benzyl)-acrylamide], the IC50 stood at 44 nM.

Regarding `O=C([C@H](Cc1ccccc1)N(Cc1ccc(-c2ccccn2)cc1)C(=O)C=Cc1ccc(C(F)(F)F)nc1)N1CCC(c2ccccc2)CC1` [Example 50, (S)-N-[1-Benzyl-2-oxo-2-(4-phenyl-piperidin-1-yl)-ethyl]-N-(4-pyridin-2-yl-benzyl)-3-(6-trifluoromethyl-pyridin-3-yl)-acrylamide], the IC50 came out at 13 nM.

In the case of `COCCN(C)C(=O)[C@H](Cc1ccccc1)N(Cc1ccc(-c2ccncc2)cc1)C(=O)C=Cc1ccc(C)cn1` [Example 100, (S)-N-{1-[(2-Methoxy-ethyl)-methyl-carbamoyl]-2-phenyl-ethyl}-3-(5-methyl-pyridin-2-yl)-N-(4-pyridin-4-yl-benzyl)-acrylamide], the IC50 is 12 nM.

As to `CN(CCN(C)C(=O)[C@H](Cc1ccccc1)N(Cc1ccc(-c2ccccn2)cc1)C(=O)C=Cc1ccc(C(F)(F)F)cc1)Cc1cccnc1` [Example 231, (S)-N-(1-{Methyl-[2-(methyl-pyridin-3-ylmethyl-amino)-ethyl]-carbamoyl}-2-phenyl-ethyl)-N-(4-pyridin-2-yl-benzyl)-3-(4-trifluoromethyl-phenyl)-acrylamide], the IC50 worked out at 30 nM.

For the molecule `COCCN(C)C(=O)[C@H](Cc1ccccc1)N(Cc1ccc(-c2ccncc2)cc1)C(=O)C=Cc1cc(C)on1` [Example 95, (S)-N-{1-[(2-Methoxy-ethyl)-methyl-carbamoyl]-2-phenyl-ethyl}-3-(5-methyl-isoxazol-3-yl)-N-(4-pyridin-4-yl-benzyl)-acrylamide], the IC50 stood at 33 nM.

On to `COCCN(C)C(=O)[C@H](Cc1ccccc1)N(Cc1ccc(N2CCN(C(C)=O)CC2)cc1)C(=O)C=Cc1ccc(C)cn1` [Example 114, (S)-N-[4-(4-Acetyl-piperazin-1-yl)-benzyl]-N-{1-[(2-methoxy-ethyl)-methyl-carbamoyl]-2-phenyl-ethyl}-3-(5-methyl-pyridin-2-yl)-acrylamide], for which the IC50 was 107 nM.

In the case of `Cc1ccc(CN(C)CCN(C)C(=O)[C@H](Cc2ccccc2)N(Cc2ccc(N3CCOCC3)cc2)C(=O)C=Cc2ccc(C(F)(F)F)cc2)c(F)c1F` [Example 268, (S)-N-[1-({2-[(2,3-Difluoro-4-methyl-benzyl)-methyl-amino]-ethyl}-methyl-carbamoyl)-2-phenyl-ethyl]-N-(4-morpholin-4-yl-benzyl)-3-(4-trifluoromethyl-phenyl)-acrylamide], the IC50 was determined as 80 nM.

With `COc1ccc(C=CC(=O)N(Cc2ccc(N3CCOCC3)nc2)[C@@H](Cc2ccccc2)C(=O)N2CCOCC2)cc1` [Example 148, (S)-N-(1-Benzyl-2-morpholin-4-yl-2-oxo-ethyl)-3-(4-methoxy-phenyl)-N-(6-morpholin-4-yl-pyridin-3-ylmethyl)-acrylamide], the IC50 came to 65 nM.

As for `COCCN(C)C(=O)C(Cc1cnn(C)c1)N(Cc1ccc(-c2ccncc2)cc1)C(=O)C=Cc1ccc(C(F)(F)F)cc1` (racemic) [Example 166], the IC50 stood at 96 nM.

On to `COCCN(C)C(=O)[C@H](Cc1ccccc1)N(Cc1ccc(-c2ccncc2)cc1)C(=O)C=Cc1nc(C)oc1C` [Example 97, (S)-3-(2,5-Dimethyl-oxazol-4-yl)-N-{1-[(2-methoxy-ethyl)-methyl-carbamoyl]-2-phenyl-ethyl}-N-(4-pyridin-4-yl-benzyl)-acrylamide], for which the IC50 is 15 nM.

`CN(CCOCc1cccc(OC(F)(F)F)c1)C(=O)[C@H](Cc1ccccc1)N(Cc1ccc(N2CCOCC2)cc1)C(=O)C=Cc1ccc(C(F)(F)F)cc1` [Example 198, (S)-N-(1-{Methyl-[2-(3-trifluoromethoxy-benzyloxy)-ethyl]-carbamoyl}-2-phenyl-ethyl)-N-(4-morpholin-4-yl-benzyl)-3-(4-trifluoromethyl-phenyl)-acrylamide]: the 50% inhibitory concentration (IC50) came out at 65 nM.

Take `COCCNc1ccc(CN(C)C(=O)[C@H](Cc2ccccc2)N(Cc2ccc(N3CCOCC3)cc2)C(=O)C=Cc2ccc(C(F)(F)F)nc2)cc1` [Example 277]: the IC50 turned out to be 47 nM.

Turning to `COCCN(C)C(=O)[C@H](Cc1ccccc1)N(Cc1ccc(-c2ccccn2)cc1)C(=O)C=Cc1c(C)nn(C)c1C` [Example 75, (S)-N-{1-[(2-Methoxy-ethyl)-methyl-carbamoyl]-2-phenyl-ethyl}-N-(4-pyridin-2-yl-benzyl)-3-(1,3,5-trimethyl-1H-pyrazol-4-yl)-acrylamide], the IC50 came out at 11 nM.

Regarding `CN(CCOCc1cccnc1)C(=O)[C@H](Cc1ccccc1)N(Cc1ccc(N2CCOCC2)cc1)C(=O)C=Cc1ccc(C(F)(F)F)cc1` [Example 203, (S)-N-(1-{Methyl-[2-(pyridin-3-ylmethoxy)-ethyl]-carbamoyl}-2-phenyl-ethyl)-N-(4-morpholin-4-yl-benzyl)-3-(4-trifluoromethyl-phenyl)-acrylamide], the IC50 amounted to 12 nM.

With `COc1ccc(C=CC(=O)N(Cc2ccc(-c3ccccn3)cc2)[C@@H](Cc2ccccc2)C(=O)N2CCC(N(C)C)CC2)cn1` [Example 16, (S)-N-[1-Benzyl-2-(4-dimethylamino-piperidin-1-yl)-2-oxo-ethyl]-3-(6-methoxy-pyridin-3-yl)-N-(4-pyridin-2-yl-benzyl)-acrylamide], the IC50 came out at 115 nM.

On to `COCCN(C)C(=O)[C@H](Cc1ccccc1)N(Cc1ccc(N2CCN(C(C)=O)CC2)cc1)C(=O)C=Cc1ccc(OC)nc1` [Example 115, (S)-N-[4-(4-Acetyl-piperazin-1-yl)-benzyl]-N-{1-[(2-methoxy-ethyl)-methyl-carbamoyl]-2-phenyl-ethyl}-3-(6-methoxy-pyridin-3-yl)-acrylamide], for which the IC50 stood at 32 nM.

For the molecule `Cc1ccc(C=CC(=O)N(Cc2ccc(N3CCOCC3)nc2)[C@@H](Cc2ccccc2)C(=O)N2CCOCC2)cc1` [Example 147, (S)-N-(1-Benzyl-2-morpholin-4-yl-2-oxo-ethyl)-N-(6-morpholin-4-yl-pyridin-3-ylmethyl)-3-p-tolyl-acrylamide], the IC50 is 77 nM.

For the molecule `CC(=O)N1CCN(c2ccc(CN(C(=O)C=Cc3ccc(C(F)(F)F)cc3)[C@@H](Cc3ccccc3)C(=O)N(C)CCOCC#N)cc2)CC1` [Example 211, (S)-N-[4-(4-Acetyl-piperazin-1-yl)-benzyl]-N-{1-[(2-cyanomethoxy-ethyl)-methyl-carbamoyl]-2-phenyl-ethyl}-3-(4-trifluoromethyl-phenyl)-acrylamide], the IC50 stood at 18 nM.

With `O=C([C@H](Cc1ccccc1)N(Cc1ccc(-c2ccccn2)cc1)C(=O)C=Cc1ccc(C(F)(F)F)cc1)N1CCC(CN2CCCC2)CC1` [Example 52, (S)-N-[1-Benzyl-2-oxo-2-(4-pyrrolidin-1-ylmethyl-piperidin-1-yl)-ethyl]-N-(4-pyridin-2-yl-benzyl)-3-(4-trifluoromethyl-phenyl)-acrylamide], the IC50 came out at 92 nM.

Consider `CC(=O)N1CCN(c2ccc(CN(C(=O)C=Cc3ccc(C(F)(F)F)nc3)[C@@H](Cc3ccccc3)C(=O)N(C)CCOCc3ccccn3)cc2)CC1` [Example 215, (S)-N-[4-(4-Acetyl-piperazin-1-yl)-benzyl]-N-(1-{methyl-[2-(pyridin-2-ylmethoxy)-ethyl]-carbamoyl}-2-phenyl-ethyl)-3-(6-trifluoromethyl-pyridin-3-yl)-acrylamide], for which the IC50 amounted to 86 nM.
